This is an account of results in a melting point compilation (Tetko et al.; mined from patent text by program, amines drawn as free bases though some values may be those of a salt).

A value given as a limit tells only on which side of the number the result lay.

What is called melting point is the temperature, or range, at which the solid turns liquid.

In turn, `CCN(CC)Cc1ccc2[nH]c(-c3ccccc3)cc(=O)c2c1` displayed a melting point of 228 to 230 °C.

The compound `CC(C)(O)CON1C(C)(C)CC(OC(=O)c2ccc3nn(-c4cc(C(C)(C)C)cc(C(C)(C)c5ccc(Cl)cc5)c4O)nc3c2)CC1(C)C` registered a melting point of 80 to 90 °C.

The compound `CC(=O)OC(OC(C)=O)c1ccc([N+](=O)[O-])cc1` gave a melting point of 124 to 126 °C.

Compound `COC(CN(C)C(=O)Nc1cc(C(C)(C)C)on1)OC` had a melting point of 80 to 84 °C.

Turning to `COc1cc2c(Nc3ccc(Cl)cc3F)ncnc2cc1OCc1ccnc(C)c1`, the melting point was 221 to 224 °C.

`COC(=O)c1cc(Br)ccc1O` came in with a melting point of 59 to 61.5 °C.

The compound `CCc1nn(C2CCCC2)c2cc(C(=O)NCc3ccncc3)ccc12` showed a melting point of 147 to 149 °C.

`CCCc1nc(N)c(C(=O)OC)[nH]1` yielded a melting point of 133 to 136 °C.

The compound `Cc1c(CNC2CCCC2)[nH]c2c(C)c(NC(=O)c3ccc(OC[C@@H]4CCCO4)cc3)ccc12` had a melting point of 107 to 109 °C.

`CCCCCCc1sc(C(N)=O)c2c1-c1c(cnn1C)CC2`: the melting point lay in the range of 100 to 101 °C.

`CN1CCC(c2c[nH]c3ccc(OC4CCCCC4)cc23)CC1` registered a melting point of 192 to 194 °C.

Turning to `CS(=O)c1ccc(-c2nc(S)[nH]c2-c2ccc(S(C)=O)cc2)cc1` (configuration not stated), the melting point lay in the range of 261 to 262 °C.

In the case of `Cc1cn(C(C)(C)C(=O)N(C)C)nc1-c1cccs1`, the melting point lay in the range of 116 to 119 °C.

Consider `O=C(O)c1nn(-c2ccccc2)c2c1CCc1cc(Cl)ccc1-2`, for which the melting point is 282 °C.

In the case of `CN(C)c1ccc(NC(=O)N(C[C@@H]2CCCC[C@H]2CN(C(=O)Nc2ccc(N(C)C)cc2)C2CCCCCC2)C2CCCCCC2)cc1` (relative stereo), the melting point fell in the range of 107 to 112 °C.

Compound `CN(NC(=O)OC(C)(C)C)C(=O)OCc1ccccc1` displayed a melting point of 60 to 65 °C.

In turn, `Cc1c(NC(=O)NC(C)(C)CO)c(C)c2c(c1-c1ccccc1)OCC2c1ccc(C(C)C)cc1` (configuration not stated) returned a melting point of 181 to 182 °C.

As to `COc1cc(OC)nc(OC(C(=O)O)C(C)(C)CO)n1` (configuration not stated), the melting point is 104 to 110 °C.

As to `CC(=O)N1CCN(CCN2C=Cc3cc(S(N)(=O)=O)sc3S2(=O)=O)CC1`, the melting point lay within 180 to 183 °C.

In turn, `Cn1cc(-c2ccnc(Cl)n2)c(-c2ccc(Cl)cc2Cl)n1` displayed a melting point of 165 to 166 °C.

On to `COc1cc2c(cc1OC)CCC(C(=O)N1CCN(C(=O)c3cc(OC)c(OC)cc3OC)CC1)=C2`, for which the melting point was in the range of 171 to 172 °C.

For the compound `COC(=O)C1=C(C)NC(C)=C(C(=O)CS(=O)(=O)N(C)C)C1c1cccc([N+](=O)[O-])c1` (configuration not stated), the melting point lay within 154 to 157 °C.

As to `Cn1c(Cl)c(Cl)c(C#N)c1Cl`, the melting point is 113 to 114 °C.

In turn, `CCOC(=O)C(C)n1c(-c2ccc(Cl)cc2)nc2cccnc21` (configuration not stated) registered a melting point of 103 to 106 °C.

The compound `COc1ccc(-c2c(CO)c(CO)c3sc4ccccc4n23)cc1` registered a melting point of 156 to 157 °C.

Take `CNc1nc(C(C)c2ccc(-c3ccccc3)c(F)c2)cs1` (configuration not stated): the melting point fell in the range of 144 to 145 °C.

Regarding `CS(=O)(=O)c1ccc(C2=C(c3ccc(-c4cccs4)cc3)C(=O)OC2)cc1`, the melting point fell in the range of 198 to 201 °C.

Compound `CC(C)c1cccc(C(C)C)c1NC(=O)CN1CCN(CCSc2nc3cccc(-c4cc[nH]n4)c3o2)CC1` yielded a melting point of 181 to 183 °C.

As to `CN(C)c1cc(Cl)c2c(c1)NC(=O)C(C)(c1ccccc1)C2=O` (configuration not stated), the melting point was 224 to 226 °C.

Compound `CCc1ccc2c(c1)C=Cc1cc(O)ccc1C2c1cn(-c2ccnc(NCC(=O)Nc3nc(CC(=O)O)cs3)n2)c(=O)[nH]c1=O` (configuration not stated) yielded a melting point of 225 °C.

As to `c1ccc(COc2cc(OCc3ccccc3)c3ccncc3c2)cc1`, the melting point fell in the range of 113 to 115 °C.

`COCCN1CCc2ccc(Nc3ncc(Cl)c(Nc4ccccc4C(=O)NC4CC4)n3)cc2CC1` came in with a melting point of 165 to 180 °C.

Regarding `COC(=O)c1ccc2c(c1)C(=O)c1ccccc1CO2`, the melting point was in the range of 128 to 129 °C.

`Brc1nnc2n1C=Cc1ccccc1C2` showed a melting point of 169 to 170 °C.

As to `O=C(O)c1cc(-n2c(-c3ccccc3)cc3ccccc32)ccc1O`, the melting point was in the range of 210 to 212 °C.

Consider `CC(C)C(NC(=O)OC(C)(C)C)C(=O)NC(C(=O)OC1CC(n2cc(C=CBr)c(=O)[nH]c2=O)OC1CN=[N+]=[N-])C(C)C` (configuration not stated), for which the melting point fell in the range of 133 to 135 °C.

In the case of `C[Si](C)(C)C#Cc1ccc(I)cc1`, the melting point fell in the range of 57 to 59 °C.

`CCCc1c(OCCCCOc2ccc(C(=O)c3cccc(C(=O)O)c3)cc2CCC(=O)O)ccc2c1OCCC2=O`: the melting point lay in the range of 177 to 180 °C.

With `CC1(n2cc(C(=O)O)c(=O)c3cc(F)c(F)c(F)c32)CC1`, the melting point was in the range of 292 to 294 °C.

The compound `ClCCCCOc1cccc(OCCCCCl)c1` returned a melting point of 85 to 86 °C.

`COc1cccc(C(=O)O)c1CCc1cccc(Cl)c1`: the melting point worked out at 91 °C.

The compound `O=C(OCC(Cl)(Cl)Cl)N1CCCC(C(=O)OCc2ccccc2)(C(=O)OCc2ccccc2)C1` showed a melting point of 76 °C.

The compound `CN(C)c1ccc2c(=O)c(-c3nnnn3C)cn(C)c2c1` gave a melting point of 280 to 283 °C.

`Cc1csc2[nH]c(C(=O)c3ccccc3)cc12` yielded a melting point of 199 °C.

For the compound `COc1ccc(N2CCN(c3ccc(NC(=O)NCC(OC)OC)cc3)CC2)cc1`, the melting point came out at 225 °C.

In turn, `CCCOc1ccccc1-c1nc(NCCCO)cc(=O)[nH]1` registered a melting point of 148 °C.

Compound `Oc1ccc2cc(-c3cnc(Cc4ccc5ccccc5c4)o3)ccc2c1` yielded a melting point of 188 to 191 °C.

As to `CC1CCCN1CCN1C=c2ccc(=c3ccc4c(c3)CCN(C)C=4)cc2CC1` (configuration not stated), the melting point was > 270 °C.

In turn, `O=C(O)C1=Cc2cc(Cl)cc(-c3ccco3)c2OC1C(F)(F)F` (configuration not stated) showed a melting point of 172 to 173 °C.

The compound `CC(C)(C)c1ccc(S(=O)(=O)Nc2nc(Cl)ncc2Oc2ccccc2Cl)cc1` displayed a melting point of 186 to 187 °C.

Compound `O=C(O)C=C(C(=O)c1ccc(Cl)c(Cl)c1)c1ccccc1` showed a melting point of 101 to 103 °C.

Turning to `CCCCc1ncc(/C=C(\Cc2cccs2)C(=O)O)n1Cc1cccc(OC)c1[N+](=O)[O-]`, the melting point lay within 213 to 215 °C.

In the case of `COCCSNS(=O)(=O)c1ccccc1`, the melting point is 119 to 121 °C.

The compound `CCCCCCCCCCCCCCOc1ccc(CBr)cc1CBr` displayed a melting point of 62.9 °C.

For the compound `Clc1cc(NCCc2ccccc2)c2ccccc2n1`, the melting point was 132 to 133 °C.

With `CN(C)c1ncnc2c1c(-c1ccc([N+](=O)[O-])o1)nn2C`, the melting point came to 161 °C.

`CCOC(=O)C1=C(COCCNS(N)(=O)=O)NC(C)=C(C(=O)OC)C1c1cccc(Cl)c1Cl` (configuration not stated) came in with a melting point of 89 to 90 °C.

`CC1(O)c2ccccc2COc2ccc(C(=O)O)cc21` (configuration not stated) gave a melting point of 258 °C.

For the compound `c1ccc2c(c1)CCc1c-2noc1N1CCCNCC1`, the melting point lay in the range of 79 to 81 °C.

The compound `COc1cc(-c2nc3ccccc3n2Cc2ccccc2C(F)(F)F)cc(OC)c1OC` returned a melting point of 144 °C.

For the compound `CCOCC1=NC(=Cc2cccs2)C(=O)O1`, the melting point was 102 °C.

Take `CC(=O)Oc1cc(C(C)C)ccc1C1(OC(C)=O)C(=O)c2ccccc2C1=O`: the melting point lay within 136 to 137 °C.
